The numbers were not newly measured in patent US7135615B2, “Chromosome doubling method” (The Curators of the University of Missouri, priority 2001, dated 2006), which cites them from elsewhere.

For this data set, the system named is parthenogenetically induced haploid maize (Zea mays L.) seedlings. To be noted: cited from earlier work.

`COc1cc2c(c(OC)c1OC)-c1ccc(OC)c(=O)cc1[C@@H](NC(C)=O)CC2` [colchicine]: the haploid recovery rates (colchicine treatments of haploid maize seedlings, reported) is reported as 26–41%. The “recovery rates could drop as low as” value (colchicine treatments, affected by growing conditions) is 0.8–3.1%. Further, for the setting “previously used colchicine treatments”, the estimated selfing rate is recorded as 5–15%.
